In brackets after ≈: the same amount, converted by molar mass. Several values for one entry are separate records, joined by “and”; a condition that tells them apart may be missing. Equal entries are not always repeated.
Tests used:
AmpC producers = experiment: microdilution with ceftazidime; type: cell-based
Method: (§1) To examine the ability of tested agents to inhibit various carbapenemases and AmpC-enzymes, their synergy with antibiotics against β-lactamase-producing strains was assessed by checkerboard microdilution assay, with slight modification. Checkerboards were prepared in microtiter plates, with seven two-fold dilutions of β-lactams (1–64 mg/L) in the rows and three two-fold dilutions of tested agents and PBA (4–16 mg/L) in the columns. Tested agents’ concentrations were limited to the concentrations at which the newest commercially available BLIs (vaborbactam, relebactam, and avibactam) are used in susceptibility testing. Plates were inoculated and incubated as in the MIC microdilution assay. Parallel, MICs of tested agents and PBA alone were determined by the microdilution assay. Following the incubation, antibiotic MICs in the presence of each agent’s concentration were determined. Moreover, for the first well without growth found in each checkerboard row and column along the growth/non-growth interface, the fractional inhibitory concentration index (FICI) was calculated using the formula below:FICI = [(MIC of antibiotic in combination)/(MIC of antibiotic alone)] + [(MIC of the tested agent in combination)/(MIC of tested agent alone)].
(§2) For calculations, all off-scale MICs were converted to the next-highest doubling concentration. Subsequently, both the average and the lowest FICI were interpreted. The interpretation was as follows: FICI ≤ 0.5, synergy; 0.5 < FICI ≤ 4, indifference and FICI > 4, antagonism. Primarily, examined combinations consisted of meropenem (Pol-Aura, Morag, Poland) plus tested agents against carbapenemases-producing strains and ceftazidime (Pol-Aura, Morag, Poland) plus tested agents against AmpC-producing strains. For agents that reduced meropenem MIC at least 4-fold for at least two tested strains, similar assays were performed with imipenem (Pol-Aura, Morag, Poland) and ertapenem (Pol-Aura, Morag, Poland).

[1] = system: E. coli 76 KPC-2-positive; experiment: checkerboard microdilution, antibiotic plus tested agent; type: cell-based, Escherichia coli
Outline: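 Chequerboard layout: tested agent in three two-fold steps (4–16 mg/L) crossed with seven β-lactam dilutions (1–64 mg/L), meropenem for KPC strains and ceftazidime for the cAmpC strain. FICI from first non-growth wells, off-scale MICs raised one doubling; ≤0.5 counts as synergy, >4 antagonism.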

KPC producers = experiment: microdilution with carbapenems; type: cell-based
Method: as §1, §2

[2] = system: Gram-negative rods (except P. aeruginosa); experiment: direct antimicrobial activity, MIC; type: cell-based
Method: (§3) Direct antimicrobial activity against Gram-negative and Gram-positive bacterial strains, as well as against yeast, was examined as previously described by the disc-diffusion test, the MIC determination assay, the MBC (for bacteria), and the MFC (for yeasts) determination tests. All the above-mentioned tests were performed according to EUCAST [71, 72] and CLSI [73, 74, 75, 76, 77] recommendations. The following reference agents were used: nitrofurantoin (for Gram-negative rods), linezolid (for Gram-positive bacteria), and fluconazole (in the case of fungi). The new aromatic diboronic acids were dissolved in DMSO (Sigma, St. Louis, MO, USA). In the disc-diffusion test, the concentration of new agents was 0.4 mg per disc.

Gram-positive strains = experiment: direct antimicrobial activity, MIC; type: cell-based
Method: as §3, with “disc. Depending on the solubility, the MIC and MBC/MFC values were determined up to 100 mg/L for 1k, up to 200 mg/L for 7c, and up to 400 mg/L for the remaining compounds: 1a–1j, 2a–2g, 3a–3f, 4a–4b, 5a–5c, 6a and 7a–7b.” for “disc.”

E. coli DH5α = experiment: whole cell assay, meropenem MIC with tested agent; type: cell-based, Escherichia coli
Method: as §1

[3] = system: E. coli 82 TR(pl 81), transformant carrying blaKPC-3; experiment: whole cell assay, meropenem MIC with tested agent; type: cell-based, Escherichia coli
Method: as §1

[4] = target: KPC-3 in purified protein extract from E. coli 82 TR(pl 81) (Klebsiella pneumoniae, UniProt Q9F663, H272Y); experiment: nitrocefin hydrolysis test; type: biochemical; details: single repetitions
KPC-3 in purified protein extract from E. coli 82 TR(pl 81), sequence (Q9F663 25-293 H272Y): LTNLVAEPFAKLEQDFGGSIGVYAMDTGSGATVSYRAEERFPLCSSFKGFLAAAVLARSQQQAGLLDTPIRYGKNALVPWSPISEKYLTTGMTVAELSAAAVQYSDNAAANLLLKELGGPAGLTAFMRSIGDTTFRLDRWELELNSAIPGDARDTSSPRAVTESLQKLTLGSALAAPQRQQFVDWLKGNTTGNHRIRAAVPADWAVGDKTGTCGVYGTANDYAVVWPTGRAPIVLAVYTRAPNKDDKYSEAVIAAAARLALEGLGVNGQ
Method: Overnight culture of E. coli 82 TR(pl 81) in MHB was diluted 1:100 into fresh MHB and incubated with shaking at 37 °C until an OD600 of 1 was attained. […] Further incubation was performed under the same conditions until an OD600 of 3 was reached. The culture with the required OD600 was centrifuged (6700× g, 10 min) and the supernatant was discarded. From the obtained bacterial cell pellet total proteins were extracted with the ReadyPreps™ Protein Preparation Kit (Epicentre Biotechnologies, Madison, WI, USA) and used in the subsequent nitrocefin hydrolysis test, performed in a 96-well microplate. Nitrocefin is a chromogenic cephalosporin substrate routinely used to detect the presence of β-lactamases. First, 20 μL of the protein extract was mixed with 80 μL of tested agents (1a, 2a, 3a and PBA as a reference BLI, each examined at concentrations: 4, 8 and 16 mg/L) or with 80 μL of the phosphate buffer (positive control—corresponding to KPC enzyme activity in the purified total proteins extracted from E. coli 82 TR(pl 81) cells). After 10 min of incubation at the room temperature 100 μL of the nitrocefin (Oxoid, Basingstoke, Hampshire, England) was added to reach its final concentration of 150 μM. β-lactamases hydrolyze the β-lactam ring of nitrocefin, causing its degradation and color change. Nitrocefin hydrolysis was evaluated after 3 min of the incubation at room temperature.
As in our previous publication the presence of β-lactamases in the purified protein extract with and without tested agents was assessed by the spectrophotometric measurement of the rates of nitrocefin hydrolysis as relative absorbance at 486 nm. The level of the measured absorbance indicated β-lactamase activity. Finally, the difference in the relative absorbance between the positive control and the sample concentration of the tested inhibitors was calculated and expressed as a percentage. A reduction in the relative absorbance level in the presence of a tested agent was taken as an indicator of the BLI activity of a used aromatic diboronic acid. The experiment was performed in triplicate.

[5] = Escherichia coli, read-out: MIC of agent alone

| SMILES | ceftazidime MIC reduction, up to (AmpC producers; agent 4 mg/L) | ceftazidime MIC reduction, up to (AmpC producers; agent 8 mg/L) | ceftazidime MIC reduction, up to (AmpC producers; agent 16 mg/L) | Average FICI with ERT [1] | Average FICI with IMI [1] | Average FICI with MEM [1] | The lowest FICI with ERT [1] | The lowest FICI with IMI [1] | The lowest FICI with MEM [1] | other results |
| --- | --- | --- | --- | --- | --- | --- | --- | --- | --- | --- |
| OB(O)c1ccc(F)cc1B(O)O [3c] |  |  |  | 0.43 | 0.22 | 0.43 | 0.27 | 0.15 | 0.27 |  |
| O=Cc1cc(F)ccc1B(O)O [7b] |  |  |  |  |  |  |  |  |  | MIC (Gram-positive strains; enterococci): 100 to 400 µg/mL (≈ 595 to 2380 µM); MIC (Gram-positive strains; staphylococci): 12.5 to 50 µg/mL (≈ 74.4 to 298 µM); MIC [2]: 50 to 400 µg/mL (≈ 298 to 2380 µM) |
| OB(O)c1ccccc1 [PBA, phenylboronic acid, reference compound] |  |  |  | 0.35 | 0.22 | 0.26 | 0.26 | 0.15 | 0.26 | carbapenems' MIC reduction, up to (KPC producers; agent 16 mg/L, KPC-2 producers): up to 8 fold; carbapenems' MIC reduction, up to (KPC producers; agent 16 mg/L, KPC-3 producers): up to 4 fold; MIC (E. coli DH5α; [5]): > 400 µg/mL; MIC of meropenem in combination with agent (E. coli DH5α; agent 16 mg/L): 0.016 µg/mL; MIC [3, 5]: > 400 µg/mL; MIC of meropenem in combination with agent ([3]; agent 4 mg/L): 0.50 µg/mL; MIC of meropenem in combination with agent ([3]; agent 8 mg/L): 0.25 µg/mL; MIC of meropenem in combination with agent ([3]; agent 16 mg/L): 0.25 µg/mL; Relative absorbance (nitrocefin hydrolysis, 486 nm) ([4]; agent 4 mg/L): 1.093 and 1.087 and 1.232; Relative absorbance (nitrocefin hydrolysis, 486 nm) ([4]; agent 8 mg/L): 1.183 and 1.165 and 1.117; Relative absorbance (nitrocefin hydrolysis, 486 nm) ([4]; agent 16 mg/L): 0.975 and 0.933 and 0.957 |

More lines, main results first:

| ceftazidime MIC reduction, up to (AmpC producers; agent 4 mg/L) | ceftazidime MIC reduction, up to (AmpC producers; agent 8 mg/L) | ceftazidime MIC reduction, up to (AmpC producers; agent 16 mg/L) | SMILES | Average FICI with ERT [1] | Average FICI with IMI [1] | Average FICI with MEM [1] | The lowest FICI with ERT [1] | The lowest FICI with IMI [1] | The lowest FICI with MEM [1] | other results |
| --- | --- | --- | --- | --- | --- | --- | --- | --- | --- | --- |
| ≤ 2 fold | up to 4 fold | ≤ 8 fold | OB(O)c1cccc(F)c1B(O)O [3b] |  |  |  |  |  |  |  |
| ≤ 2 fold | up to 4 fold | ≤ 8 fold | OB(O)c1ccc(B(O)O)c(B(O)O)c1 [4b, benzene-1,2,4-triboronic] |  |  |  |  |  |  |  |
| ≤ 2 fold | up to 4 fold | ≤ 8 fold | OB(O)c1ccsc1B(O)O [5a, thiophene-2,3-diboronic acid] |  |  |  |  |  |  |  |
| ≤ 8 fold | up to 16 fold | up to 32 fold | OB(O)c1cc(F)ccc1F [7a, 2,5-difluorophenylboronic acid] | 0.51 | 0.30 | 0.51 | 0.41 | 0.29 | 0.41 | carbapenems' MIC reduction, up to (KPC producers; agent 4 mg/L): ≤ 2 fold; carbapenems' MIC reduction, up to (KPC producers; agent 8 mg/L): up to 8 fold; MIC [2]: 50 to 400 µg/mL (≈ 317 to 2530 µM) |

— paper PMC10648349, “Aromatic Diboronic Acids as Effective KPC/AmpC Inhibitors” (Molecules, 2023)
